What follows are compounds tested on Human platelet aggregation caused by ADP (assay: Inhibition of ADP-induced platelet aggregation (Mimic-human PRP)). Conditions: 20 μM ADP, human platelet concentrate diluted with PPP, absorption at 595 nm.
Assay type: cell-based
Outline: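 Ki came from non-linear sigmoidal fits of inhibition, measured as the 3-min rise in absorbance at 595 nm after 20 μM ADP, relative to 0/20 μM ADP controls. Platelets (3–4×10^8/mL in PPP-diluted human PRP) were exposed to 0.01–30 μM compound for 20 min at room temperature beforehand.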
Compound CCCc1cc2c(N3CCn4c(nnc4C(F)(F)F)C3)nc(OCCC(=O)NC)nc2s1 [Example 9-66, N-Methyl-3-[6-propyl-4-(3-trifluoromethyl-5,6-dihydro-8H-[1,2,4]triazolo[4,3-a]pyrazin-7-yl)-thieno[2,3-d]pyrimidin-2-yloxy]-propionamide] has a Ki of 0.0052 µM.
Compound CCCc1cc2c(N3CCn4c(nnc4C(F)(F)F)C3)nc(OCCC(=O)N(C)C)nc2s1 [Example 9-67, N,N-Dimethyl-3-[6-propyl-4-(3-trifluoromethyl-5,6-dihydro-8H-[1,2,4]triazolo[4,3-a]pyrazin-7-yl)-thieno[2,3-d]pyrimidin-2-yloxy]-propionamide] has a Ki of 0.097 µM.
CCCc1cc2c(N3CCn4c(nnc4C(F)(F)F)C3)nc(OCCC(=O)N3CCCC3)nc2s1 [Example 9-68, 3-[6-Propyl-4-(3-trifluoromethyl-5,6-dihydro-8H-[1,2,4]triazolo[4,3-a]pyrazin-7-yl)-thieno[2,3-d]pyrimidin-2-yloxy]-1-pyrrolidin-1-yl-propan-1-one] showed a Ki of 0.26 µM.
CCCc1cc2c(N3CCn4c(nnc4C(F)(F)F)C3)nc(OCCC(=O)NC3CCCC3)nc2s1 [Example 9-69, N-Cyclopentyl-3-[6-propyl-4-(3-trifluoromethyl-5,6-dihydro-8H-[1,2,4]triazolo[4,3-a]pyrazin-7-yl)-thieno[2,3-d]pyrimidin-2-yloxy]-propionamide] was tested, and the Ki was 0.55 µM.
CCCc1cc2c(N3CCn4c(nnc4C(F)(F)F)C3)nc(OCCC(N)=O)nc2s1 [Example 9-70, 3-[6-Propyl-4-(3-trifluoromethyl-5,6-dihydro-8H-[1,2,4]triazolo[4,3-a]pyrazin-7-yl)-thieno[2,3-d]pyrimidin-2-yloxy]-propionamide] gave a Ki of 0.006 µM.
CCCc1cc2c(N3CCn4c(nnc4C(F)(F)F)C3)nc(OCCC#N)nc2s1 [Example 9-71, 3-[6-Propyl-4-(3-trifluoromethyl-5,6-dihydro-8H-[1,2,4]triazolo[4,3-a]pyrazin-7-yl)-thieno[2,3-d]pyrimidin-2-yloxy]-propionitrile] gave a Ki of 0.0007 µM.
Work on CCCc1cc2c(N3CCn4c(nnc4C(F)(F)F)C3)nc(N3CC[C@H](C(=O)NN)C3)nc2s1 [Example 9-72, (S)-1-[6-Propyl-4-(3-trifluoromethyl-5,6-dihydro-8H-[1,2,4]triazolo[4,3-a]pyrazin-7-yl)-thieno[2,3-d]pyrimidin-2-yl]-pyrrolidine-3-carboxylic acid hydrazide] yielded a Ki of 0.0006 µM.
CCCc1cc2c(N3CCn4c(nnc4C(F)(F)F)C3)nc(OCCC(=O)NN)nc2s1 [Example 9-73, 3-[6-Propyl-4-(3-trifluoromethyl-5,6-dihydro-8H-[1,2,4]triazolo[4,3-a]pyrazin-7-yl)-thieno[2,3-d]pyrimidin-2-yloxy]-propionic acid hydrazide] was tested, and the Ki was 0.016 µM.
In the case of CCCc1cc2c(N3CCn4c(nnc4C(F)(F)F)C3)nc(OC(C)CNC=O)nc2s1 (stereo not shown) [Example 9-74, N-{2-[6-Propyl-4-(3-trifluoromethyl-5,6-dihydro-8H-[1,2,4]triazolo[4,3-a]pyrazin-7-yl)-thieno[2,3-d]pyrimidin-2-yloxy]-propyl}-formamide], the Ki is reported as 0.0038 µM.
For CCCc1cc2c(N3CCn4c(nnc4C(F)(F)F)C3)nc(OCC(C)NC=O)nc2s1 (stereo not shown) [Example 9-75, N-{1-Methyl-2-[6-propyl-4-(3-trifluoromethyl-5,6-dihydro-8H-[1,2,4]triazolo[4,3-a]pyrazin-7-yl)-thieno[2,3-d]pyrimidin-2-yloxy]-ethyl}-formamide], the Ki was 0.003 µM.
CCCc1cc2c(N3CCn4c(nnc4C(F)(F)F)C3)nc(OC(C)CNC(C)=O)nc2s1 (stereo not shown) [Example 9-76, N-{2-[6-Propyl-4-(3-trifluoromethyl-5,6-dihydro-8H-[1,2,4]triazolo[4,3-a]pyrazin-7-yl)-thieno[2,3-d]pyrimidin-2-yloxy]-propyl}-acetamide] gave a Ki of 0.022 µM.
Work on CCCc1cc2c(N3CCn4c(nnc4C(F)(F)F)C3)nc(OCC(C)NC(C)=O)nc2s1 (stereo not shown) [Example 9-77, N-{1-Methyl-2-[6-propyl-4-(3-trifluoromethyl-5,6-dihydro-8H-[1,2,4]triazolo[4,3-a]pyrazin-7-yl)-thieno[2,3-d]pyrimidin-2-yloxy]-ethyl}-acetamide] yielded a Ki of 0.006 µM.
With CCCc1cc2c(N3CCn4c(nnc4C(F)(F)F)C3)nc(OCC(C)(C)NC=O)nc2s1 [Example 9-78, N-{1,1-Dimethyl-2-[6-propyl-4-(3-trifluoromethyl-5,6-dihydro-8H-[1,2,4]triazolo[4,3-a]pyrazin-7-yl)-thieno[2,3-d]pyrimidin-2-yloxy]-ethyl}-formamide] the Ki was 0.025 µM.
CCCc1cc2c(N3CCn4c(nnc4C(F)(F)F)C3)nc(OCC(C)(C)NC(C)=O)nc2s1 [Example 9-79, N-{1,1-Dimethyl-2-[6-propyl-4-(3-trifluoromethyl-5,6-dihydro-8H-[1,2,4]triazolo[4,3-a]pyrazin-7-yl)-thieno[2,3-d]pyrimidin-2-yloxy]-ethyl}-acetamide] showed a Ki of 0.0034 µM.
CCCc1cc2c(N3CCn4c(nnc4C(F)(F)F)C3)nc(OC(C)CNC(=O)OC)nc2s1 (stereo not shown) [Example 9-80, {2-[6-Propyl-4-(3-trifluoromethyl-5,6-dihydro-8H-[1,2,4]triazolo[4,3-a]pyrazin-7-yl)-thieno[2,3-d]pyrimidin-2-yloxy]-propyl}-carbamic acid methyl ester] was tested, and the Ki was 0.015 µM.
CCCc1cc2c(N3CCn4c(nnc4C(F)(F)F)C3)nc(OCC(C)NC(=O)OC)nc2s1 (stereo not shown) [Example 9-81, {1-Methyl-2-[6-propyl-4-(3-trifluoromethyl-5,6-dihydro-8H-[1,2,4]triazolo[4,3-a]pyrazin-7-yl)-thieno[2,3-d]pyrimidin-2-yloxy]-ethyl}-carbamic acid methyl ester] gave a Ki of 0.007 µM.
Compound CCCc1cc2c(N3CCn4c(nnc4C(F)(F)F)C3)nc(OCC(C)(C)NC(=O)OC)nc2s1 [Example 9-82, {1,1-Dimethyl-2-[6-propyl-4-(3-trifluoromethyl-5,6-dihydro-8H-[1,2,4]triazolo[4,3-a]pyrazin-7-yl)-thieno[2,3-d]pyrimidin-2-yloxy]-ethyl}-carbamic acid methyl ester] has a Ki of 0.005 µM.
CCCc1cc2c(N3CCn4c(nnc4C(F)(F)F)C3)nc(OCCF)nc2s1 [Example 9-83, 7-[2-(2-Fluoro-ethoxy)-6-propyl-thieno[2,3-d]pyrimidin-4-yl]-3-trifluoromethyl-5,6,7,8-tetrahydro-[1,2,4]triazolo[4,3-a]pyrazine] gave a Ki of 0.0003 µM.
CCCc1cc2c(N3CCn4c(nnc4C(F)(F)F)C3)nc(OCC(F)(F)F)nc2s1 [Example 9-84, 7-[6-Propyl-2-(2,2,2-trifluoro-ethoxy)-thieno[2,3-d]pyrimidin-4-yl]-3-trifluoromethyl-5,6,7,8-tetrahydro-[1,2,4]triazolo[4,3-a]pyrazine] showed a Ki of 0.68 µM.
CCCc1cc2c(N3CCn4c(nnc4C(F)(F)F)C3)nc(OCCCN3CCCC3=O)nc2s1 [Example 9-85, 1-{3-[6-Propyl-4-(3-trifluoromethyl-5,6-dihydro-8H-[1,2,4]triazolo[4,3-a]pyrazin-7-yl)-thieno[2,3-d]pyrimidin-2-yloxy]-propyl}-pyrrolidin-2-one] showed a Ki of 2 µM.
Work on CCCc1cc2c(N3CCn4c(nnc4C(F)(F)F)C3)nc(OCCCNC(=O)OC)nc2s1 [Example 9-86, {3-[6-Propyl-4-(3-trifluoromethyl-5,6-dihydro-8H-[1,2,4]triazolo[4,3-a]pyrazin-7-yl)-thieno[2,3-d]pyrimidin-2-yloxy]-propyl}-carbamic acid methyl ester] yielded a Ki of 0.69 µM.
In the case of CCCc1cc2c(N3CCn4c(nnc4C(F)(F)F)C3)nc(OCCCNC(C)=O)nc2s1 [Example 9-87, N-{3-[6-Propyl-4-(3-trifluoromethyl-5,6-dihydro-8H-[1,2,4]triazolo[4,3-a]pyrazin-7-yl)-thieno[2,3-d]pyrimidin-2-yloxy]-propyl}-acetamide], the Ki is reported as 0.43 µM.
Compound CCCc1cc2c(N3CCn4c(nnc4C(F)(F)F)C3)nc(OCCCCNC(=O)OC)nc2s1 [Example 9-88, {4-[6-Propyl-4-(3-trifluoromethyl-5,6-dihydro-8H-[1,2,4]triazolo[4,3-a]pyrazin-7-yl)-thieno[2,3-d]pyrimidin-2-yloxy]-butyl}-carbamic acid methyl ester] has a Ki of 0.42 µM.
In the case of CCCc1cc2c(N3CCn4c(nnc4C(F)(F)F)C3)nc(OCCCCNC(C)=O)nc2s1 [Example 9-89, N-{4-[6-Propyl-4-(3-trifluoromethyl-5,6-dihydro-8H-[1,2,4]triazolo[4,3-a]pyrazin-7-yl)-thieno[2,3-d]pyrimidin-2-yloxy]-butyl}-acetamide], the Ki is reported as 0.29 µM.
CCCc1cc2c(N3CCn4c(nnc4C(F)(F)F)C3)nc(OCCCNC=O)nc2s1 [Example 9-90, N-{3-[6-Propyl-4-(3-trifluoromethyl-5,6-dihydro-8H-[1,2,4]triazolo[4,3-a]pyrazin-7-yl)-thieno[2,3-d]pyrimidin-2-yloxy]-propyl}-formamide] showed a Ki of 0.11 µM.
CCCc1cc2c(N3CCn4c(nnc4C(F)(F)F)C3)nc(OCCCCNC=O)nc2s1 [Example 9-91, N-{4-[6-Propyl-4-(3-trifluoromethyl-5,6-dihydro-8H-[1,2,4]triazolo[4,3-a]pyrazin-7-yl)-thieno[2,3-d]pyrimidin-2-yloxy]-butyl}-formamide] was tested, and the Ki was 0.19 µM.
CCCc1cc2c(N3CCn4c(nnc4C(F)(F)F)C3)nc(OCCCn3cccc3)nc2s1 [Example 9-92, 7-[6-Propyl-2-(3-pyrrol-1-yl-propoxy)-thieno[2,3-d]pyrimidin-4-yl]-3-trifluoromethyl-5,6,7,8-tetrahydro-[1,2,4]triazolo[4,3-a]pyrazine] showed a Ki of 1.3 µM.
Work on CCCc1cc2c(N3CCn4c(nnc4C(F)(F)F)C3)nc(OCCN(C)C=O)nc2s1 [Example 9-93, N-Methyl-N-{2-[6-propyl-4-(3-trifluoromethyl-5,6-dihydro-8H-[1,2,4]triazolo[4,3-a]pyrazin-7-yl)-thieno[2,3-d]pyrimidin-2-yloxy]-ethyl}-formamide] yielded a Ki of 0.052 µM.
